Active and inactive are the calls of the source. The rule behind the calls is not given here.
Columns and labels:
Rattus norvegicus = assay: Anticonvulsant activity in po dosed albino Sprague-Dawley rat assessed as protection against maximal electroshock-induced seizures after […] to 4 hrs; assay type: functional, organism-based
Mus musculus [1] = assay: Neurotoxicity in albino mouse assessed as minimal motor impairment at 100 mg/kg, ip after 4 hrs by rotorod test; assay type: toxicity, organism-based; set-up: dose 100 mg/kg, route intraperitoneal; conditions: in vivo
Mus musculus [2] = assay: Neurotoxicity in albino mouse assessed as minimal motor impairment at 100 mg/kg, ip after 0.5 hrs by rotorod test; assay type: toxicity, organism-based; set-up: dose 100 mg/kg, route intraperitoneal; conditions: in vivo
Mus musculus [3] = assay: Anticonvulsant activity in albino mouse assessed as protection against subcutaneous metrazole-induced seizures at 100 mg/kg, ip after 4 hrs; assay type: functional, organism-based; set-up: dose 100 mg/kg
Mus musculus [4] = assay: Anticonvulsant activity in albino mouse assessed as protection against subcutaneous metrazole-induced seizures at 100 mg/kg, ip after 0.5 hrs; assay type: functional, organism-based; set-up: dose 100 mg/kg
Mus musculus [5] = assay: Anticonvulsant activity in albino mouse assessed as protection against maximal electroshock-induced seizures at 100 mg/kg, ip after 4 hrs; assay type: functional, organism-based; set-up: dose 100 mg/kg
Mus musculus [6] = assay: Anticonvulsant activity in albino mouse assessed as protection against maximal electroshock-induced seizures at 100 mg/kg, ip after 0.5 hrs; assay type: functional, organism-based; set-up: dose 100 mg/kg
Mus musculus [7] = assay: Neurotoxicity in albino mouse assessed as minimal motor impairment at 100 mg/kg, ip after 1 hr by rotorod test; assay type: toxicity, organism-based; set-up: dose 100 mg/kg, route intraperitoneal; conditions: in vivo
Mus musculus [8] = assay: Neurotoxicity in albino mouse assessed as minimal motor impairment at 100 mg/kg, ip after 0.25 hrs by rotorod test; assay type: toxicity, organism-based; set-up: dose 100 mg/kg, route intraperitoneal; conditions: in vivo
Mus musculus [9] = assay: Anticonvulsant activity in albino mouse assessed as protection against maximal electroshock-induced seizures at 100 mg/kg, ip after 1 hr; assay type: functional, organism-based; set-up: dose 100 mg/kg
Mus musculus [10] = assay: Anticonvulsant activity in albino mouse assessed as protection against maximal electroshock-induced seizures at 100 mg/kg, ip after 0.25 hrs; assay type: functional, organism-based; set-up: dose 100 mg/kg
Mus musculus [11] = assay: Neurotoxicity in albino mouse minimal clonic seizure model assessed as minimal motor impairment at 100 mg/kg, ip after 4 hrs by rotorod test; assay type: toxicity, organism-based; set-up: dose 100 mg/kg, route intraperitoneal; conditions: in vivo
Mus musculus [12] = assay: Neurotoxicity in albino mouse minimal clonic seizure model assessed as minimal motor impairment at 100 mg/kg, ip after 2 hrs by rotorod test; assay type: toxicity, organism-based; set-up: dose 100 mg/kg, route intraperitoneal; conditions: in vivo
Mus musculus [13] = assay: Neurotoxicity in albino mouse minimal clonic seizure model assessed as minimal motor impairment at 100 mg/kg, ip after 1 hr by rotorod test; assay type: toxicity, organism-based; set-up: dose 100 mg/kg, route intraperitoneal; conditions: in vivo
Mus musculus [14] = assay: Neurotoxicity in albino mouse minimal clonic seizure model assessed as minimal motor impairment at 100 mg/kg, ip after 0.5 hrs by rotorod test; assay type: toxicity, organism-based; set-up: dose 100 mg/kg, route intraperitoneal; conditions: in vivo
Mus musculus [15] = assay: Neurotoxicity in albino mouse minimal clonic seizure model assessed as minimal motor impairment at 100 mg/kg, ip after 0.25 hrs by rotorod test; assay type: toxicity, organism-based; set-up: dose 100 mg/kg, route intraperitoneal; conditions: in vivo
Mus musculus [16] = assay: Anticonvulsant activity in albino mouse assessed as protection against 6 Hz psychomotor seizure at 100 mg/kg, ip after 4 hrs by minimal clonic seizure test; assay type: functional, organism-based; set-up: dose 100 mg/kg
Mus musculus [17] = assay: Anticonvulsant activity in albino mouse assessed as protection against 6 Hz psychomotor seizure at 100 mg/kg, ip after 2 hrs by minimal clonic seizure test; assay type: functional, organism-based; set-up: dose 100 mg/kg
Mus musculus [18] = assay: Anticonvulsant activity in albino mouse assessed as protection against 6 Hz psychomotor seizure at 100 mg/kg, ip after 1 hr by minimal clonic seizure test; assay type: functional, organism-based; set-up: dose 100 mg/kg
Mus musculus [19] = assay: Anticonvulsant activity in albino mouse assessed as protection against 6 Hz psychomotor seizure at 100 mg/kg, ip after 0.5 hrs by minimal clonic seizure test; assay type: functional, organism-based; set-up: dose 100 mg/kg
Mus musculus [20] = assay: Anticonvulsant activity in albino mouse assessed as protection against 6 Hz psychomotor seizure at 100 mg/kg, ip after 0.25 hrs by minimal clonic seizure test; assay type: functional, organism-based; set-up: dose 100 mg/kg
Mus musculus [21] = assay: Anticonvulsant activity in albino mouse assessed as protection against subcutaneous metrazole-induced seizures at 100 mg/kg, ip after 1 hr; assay type: functional, organism-based; set-up: dose 100 mg/kg
Mus musculus [22] = assay: Anticonvulsant activity in albino mouse assessed as protection against subcutaneous metrazole-induced seizures at 100 mg/kg, ip after 0.25 hrs; assay type: functional, organism-based; set-up: dose 100 mg/kg

| SMILES | Activity (Rattus norvegicus) | Activity (Mus musculus [1]) | Activity (Mus musculus [2]) | Activity (Mus musculus [3]) | Activity (Mus musculus [4]) | Activity (Mus musculus [5]) | Activity (Mus musculus [6]) | Activity (Mus musculus [7]) | Activity (Mus musculus [8]) | Activity (Mus musculus [9]) | Activity (Mus musculus [10]) | further results |
| --- | --- | --- | --- | --- | --- | --- | --- | --- | --- | --- | --- | --- |
| O=C1NC(=O)[C@@H]2CCCN2[C@H]1c1ccco1 | inactive | Non-toxic | Toxic | inactive | inactive | inactive | inactive | – | – | – | – | – |
| COc1ccc([C@H]2C(=O)NC(=O)[C@@H]3CCCN23)cc1 | inactive | Non-toxic | Non-toxic | inactive | inactive | inactive | inactive | Non-toxic | Non-toxic | inactive | inactive | – |
| COc1ccccc1[C@H]1C(=O)NC(=O)[C@@H]2CCCN12 | inactive | Non-toxic | Non-toxic | inactive | inactive | inactive | inactive | Non-toxic | Non-toxic | inactive | inactive | Activity (Mus musculus [11]): Non-toxic; Activity (Mus musculus [12]): Non-toxic; Activity (Mus musculus [13]): Non-toxic; Activity (Mus musculus [14]): Non-toxic; Activity (Mus musculus [15]): Non-toxic; Activity (Mus musculus [16]): inactive; Activity (Mus musculus [17]): inactive; Activity (Mus musculus [18]): Active; Activity (Mus musculus [19]): Active; Activity (Mus musculus [20]): Active |
| O=C1NC(=O)[C@@H]2CCCN2[C@H]1c1cccc2ccccc12 | inactive | Non-toxic | Non-toxic | inactive | inactive | inactive | inactive | – | – | – | – | – |
| O=C1NC(=O)[C@@H]2CCCN2[C@H]1c1cccs1 | inactive | Non-toxic | Non-toxic | inactive | inactive | inactive | Active | Non-toxic | Toxic | – | – | – |
| O=C1NC(=O)[C@@H]2CCCN2[C@H]1c1ccoc1 | inactive | Non-toxic | Non-toxic | inactive | inactive | inactive | inactive | – | – | – | – | – |
| O=C1NC(=O)[C@@H]2CCCN2[C@H]1c1cc(Cl)cc(Cl)c1 | inactive | Non-toxic | Non-toxic | inactive | inactive | Active | Active | Non-toxic | Non-toxic | Active | Active | Activity (Mus musculus [11]): Non-toxic; Activity (Mus musculus [12]): Non-toxic; Activity (Mus musculus [13]): Non-toxic; Activity (Mus musculus [14]): Non-toxic; Activity (Mus musculus [15]): Non-toxic; Activity (Mus musculus [16]): inactive; Activity (Mus musculus [17]): inactive; Activity (Mus musculus [18]): inactive; Activity (Mus musculus [19]): Active; Activity (Mus musculus [20]): Active; Activity (Mus musculus [21]): inactive; Activity (Mus musculus [22]): inactive |
| O=C1NC(=O)[C@@H]2CCCN2[C@H]1c1ccc2ccccc2c1 | inactive | Non-toxic | Non-toxic | inactive | inactive | inactive | inactive | – | – | – | – | – |
| COc1cccc([C@H]2C(=O)NC(=O)[C@@H]3CCCN23)c1 | inactive | Non-toxic | Non-toxic | inactive | inactive | inactive | Active | Non-toxic | Non-toxic | inactive | Active | Activity (Mus musculus [21]): inactive; Activity (Mus musculus [22]): inactive |
